Assay results from US20170020909A1, “METHODS OF TREATING GLAUCOMA USING AMP-ACTIVATED PROTEIN KINASE (AMPK) ACTIVATORS” (Massachusetts Eye and Ear Infirmary, priority 2014, published 2017).

System: Acetyl-CoA carboxylase (ACC)
Test: Time course immunoblot of p-ACC/total ACC in primary human TM cell lysates
Assay type: cell-based
Settings: 0.5 mM AICAR, human TM cells
Experimental: Primary human trabecular meshwork (TM) cells were isolated, in accordance with the Declaration of Helsinki, and maintained in culture as described previously.^63 Independent primary human TM cell lines were generated from donors ranging in age from 35 to 72 years and no known history of ocular disease. Cell cultures were maintained, unless otherwise stated, in Dulbecco's modified eagle medium (Life Technologies, Grand Island, N.Y.) containing 20% fetal bovine serum, 1% L-glutamine (2 mM), and gentamicin (0.1 mg/ml) at 37° C. in a 10% CO2 atmosphere. Only TM cells from third through fifth passage were used. […]
At the conclusion of each experiment for matricellular and ECM protein detection, conditioned media (CM) from TM cell cultures was harvested and centrifuged at 5000 rpm for 10 minutes at 4° C. The supernatant was then concentrated (Amicon Ultra-4 Filter Unit, 10 kDa; Millipore, Milford, Mass.), and protein content quantified using the DC Protein Assay kit adhering to manufacturer's protocols (Bio-Rad, Hercules, Calif.). […] Samples were then centrifuged at 14,000 rpm for 15 minutes at 4° C. and protein content quantified. […] The membranes were then washed three times with 1×TBS-T, scanned, and integrated band intensities were calculated using an infrared imaging system (Odyssey; Li-Cor, Lincoln, Nebr.). […]

In the case of NC(=O)c1ncn([C@@H]2O[C@H](CO)[C@@H](O)[C@H]2O)c1N [AICAR, 5-Aminoimidazole-4-carboxamide riboside], the “peak increase of phospho-total ACC ratio” value (at 6 hours) is reported as 6.6 fold and the “change of phospho-total ACC ratio” value (within 15 minutes) is reported as “increased by a statistically significant degree”.
